According to ChEMBL document CHEMBL5104146, “Anti-inflammatory and anticancer p-terphenyl derivatives from fungi of the genus Thelephora” (Bioorg Med Chem, 2022):

Tests used:
[1] = test system: L929; test: Cytotoxicity against mouse L929 cells assessed as cell growth inhibition; type: functional, cell-based
[2] = Inhibition of Streptococcus pneumoniae FabK using t-o-NAC as substrate in presence of NADPH by […]
[3] = test system: KB 3-1; test: Cytotoxicity against human KB 3-1 cells assessed as cell growth inhibition; type: functional, cell-based
[4] = Inhibition of Staphylococcus aureus FabK using t-o-NAC as substrate in presence of NADPH by […]
[5] = Inhibition of 17beta-HSD1 (unknown origin); set-up: species or system Homo sapiens
[6] = Inhibition of Escherichia coli FabK using t-o-NAC as substrate in presence of NADPH by […]
[7] = Inhibition of Saccharomyces cerevisiae alpha-glucosidase using pNPG as substrate preincubated for 10 mins followed by substrate addition measured after 15 mins by absorbance based microplate reader analysis
[8] = Inhibition of TNF-alpha production in rat RBL-2H3 cells; type: functional, cell-based
[9] = test system: HepG2; test: Antiproliferative activity against human HepG2 cells assessed as cell growth inhibition measured after 48 hrs; type: functional, cell-based; conditions: HepG2, 48 h
[10] = Antioxidant activity assessed as DPPH radical scavenging activity by absorbance based analysis; type: functional
[11] = Antioxidant activity assessed as DPPH radical scavenging activity measured after 30 mins under dark condition by microplate reader analysis; type: functional

Q: For `O=C1C(O)=C(c2ccc(O)c(O)c2)C(=O)C(O)=C1c1ccc(O)cc1`, which IC50 [1] is on record?
A: Its IC50 is 17 µM.

Q: What about the IC50 [2] of the same compound?
A: The IC50 was 1.57 µM.

Q: And the IC50 [3]?
A: The IC50 was 7 µM.

Q: With `O=C1C(O)=C(c2ccc(O)cc2)C(=O)C(O)=C1c1ccc(O)cc1` as the compound, how does the IC50 [4] read?
A: Its IC50 is > 200 µM.

Q: And the EC50 [5]?
A: The EC50 was > 100 µM.

Q: What about the IC50 [6] of the same compound?
A: The IC50 was > 200 µM.

Q: And the IC50 [2]?
A: Its IC50 is 0.24 µM.

Q: For `O=C(Oc1c(O)c(-c2ccc(O)cc2)c(OC(=O)c2ccccc2)c(O)c1-c1ccc(O)cc1)c1ccccc1`, which IC50 [7] is on record?
A: Its IC50 is > 50 µM.

Q: Which IC50 [8] does the source give for `O=C(Oc1c(O)c(-c2ccc(O)cc2)c(OC(=O)c2ccc(O)cc2)c(O)c1-c1ccc(O)cc1)c1ccc(O)cc1` here?
A: Its IC50 is 3.5 nM.

Q: With `CC(=O)Oc1c(OC(=O)c2ccccc2)c(-c2ccc(O)cc2)c(O)c(O)c1-c1ccc(O)cc1` as the compound, how does the IC50 [7] read?
A: Its IC50 is 0.99 µM.

Q: With `O=C(Oc1c(OC(=O)c2ccccc2)c(-c2ccc(O)cc2)c(OC(=O)c2ccccc2)c(O)c1-c1ccc(O)cc1)c1ccccc1` as the compound, how does the IC50 [7] read?
A: Its IC50 is 4.53 µM.

Q: With `CC(=O)Oc1c(OC(=O)c2ccccc2)c(-c2ccc(O)cc2)c(OC(=O)c2ccccc2)c(OC(=O)c2ccccc2)c1-c1ccc(O)cc1` as the compound, how does the IC50 [7] read?
A: Its IC50 is 2.98 µM.

Q: Which IC50 [9] does the source give for `O=C(Cc1ccccc1)Oc1c(OC(=O)c2ccccc2)c(-c2ccc(O)cc2)c(O)c(O)c1-c1ccc(O)cc1` here?
A: Its IC50 is 7 µM.

Q: Which EC50 [10] does the source give for `O=C(Cc1ccccc1)Oc1c(O)c(-c2ccc(O)cc2)c(OC(=O)c2ccc(O)cc2)c(O)c1-c1ccc(O)cc1` here?
A: The EC50 was 0.028 µM.

Q: Which results are given for `COC1=C(c2ccc(O)cc2)C(=O)C(OC(=O)c2ccccc2)=C(c2ccc(O)cc2)C1=O`?
A: EC50 [11]: 150 µM; IC50 [7]: 18.8 µM

Q: Which EC50 [10] does the source give for `O=C1O[C@H]([C@@H](O)CO)C(O)=C1O` [ASCORBIC ACID] here?
A: Its EC50 is 0.27 µM.

Q: With `O=C(Cc1ccccc1)Oc1c(OC(=O)Cc2ccccc2)c(-c2ccc(O)cc2)c(O)c(O)c1-c1ccc(O)cc1` [VIALININ A] as the compound, how does the IC50 [9] read?
A: The IC50 was 7 µM.

Q: What about the IC50 [8] of the same compound?
A: The IC50 was 0.02 nM.
